Assay type in all cases: biochemical
The target of assay [1] is recombinant human fibroblast activation protein (FAP) (Homo sapiens (Human), UniProt Q12884). In words: In vitro assay fibroblast activation protein IC50 (Example 21). The method, then:
(§1) The purpose of this assay is to determine the IC50 of various inhibitors against recombinant human dipeptidyl peptidase IV (DPPIV), fibroblast activation protein (FAP) or prolyl oligopeptidase (PREP).
(§2) The assays are conducted in the following steps: • 1 Dissolve the compound in DMSO to a final concentration of 100 mM. From this, prepare a 1 mM stock at pH 7.5 in 50 mM Tris, 140 mM NaCl Buffer (FAP)/pH 7.5 in 25 mM Tris, 250 mM NaCl Buffer/[…]. • 2. Serial dilute (1:10) the 1 mM compound stocks prepared previously into the appropriate assay buffer (FAP: 50 mM Tris, 140 mM NaCl, pH 7.5/PREP: 25 mM Tris, 0.25 M NaCl, pH 7.5/DPPIV: 25 mM Tris, pH 8.0) to one row of a 96-well plate. • 3. […] Dilute the enzymes into their appropriate assay buffers. The final enzyme concentrations should be 0.1, 1.2, and 0.6 nM for DPPIV, FAP and PREP respectively. Add 180 μL to each well needed in columns 2-10. Column 1(A,B,C) should be prepared with 200 μl of appropriate assay buffer as control. Column 1(D,E,F,G,H) should be prepared with 20 μl of appropriate assay buffer and 180 ul enzyme as no inhibitor control. • 5. Add 20 μL of the compound of interest from the dilution plate prepared in step 2 to columns 2-10 of the assay plate where appropriate. Each sample should be tested in triplicate. Allow this to incubate for 10 minutes at room temperature, shaking the plate for the first two minutes. • 6. Add 10 μL of 20× substrate prepared in step 3 to each well and allow this to incubate for 15 minutes at room temperature, shaking the plate for the first two minutes. • 7. Read the fluorescence at λex: 380, λem: 460. (DPcore=[dAla|dSer|Gly]-[boroPro|Pro-nitrile], XXaa=alpha-amino acid)

For assay [2], the target named is recombinant human prolyl oligopeptidase (PREP) (Homo sapiens (Human), UniProt P48147). The experiment in a line: In vitro assay prolyl oligopeptidase IC50 (Example 21). On the procedure:
as §1, §2

The target in assay [3] is recombinant human dipeptidyl peptidase IV (DPPIV) (Homo sapiens (Human), UniProt P27487). The experiment in a line: In vitro assay dipeptidyl peptidase IV IC50 (Example 21). On the procedure: as §1, §2
Chain of recombinant human dipeptidyl peptidase IV (DPPIV) (P27487 whole entry): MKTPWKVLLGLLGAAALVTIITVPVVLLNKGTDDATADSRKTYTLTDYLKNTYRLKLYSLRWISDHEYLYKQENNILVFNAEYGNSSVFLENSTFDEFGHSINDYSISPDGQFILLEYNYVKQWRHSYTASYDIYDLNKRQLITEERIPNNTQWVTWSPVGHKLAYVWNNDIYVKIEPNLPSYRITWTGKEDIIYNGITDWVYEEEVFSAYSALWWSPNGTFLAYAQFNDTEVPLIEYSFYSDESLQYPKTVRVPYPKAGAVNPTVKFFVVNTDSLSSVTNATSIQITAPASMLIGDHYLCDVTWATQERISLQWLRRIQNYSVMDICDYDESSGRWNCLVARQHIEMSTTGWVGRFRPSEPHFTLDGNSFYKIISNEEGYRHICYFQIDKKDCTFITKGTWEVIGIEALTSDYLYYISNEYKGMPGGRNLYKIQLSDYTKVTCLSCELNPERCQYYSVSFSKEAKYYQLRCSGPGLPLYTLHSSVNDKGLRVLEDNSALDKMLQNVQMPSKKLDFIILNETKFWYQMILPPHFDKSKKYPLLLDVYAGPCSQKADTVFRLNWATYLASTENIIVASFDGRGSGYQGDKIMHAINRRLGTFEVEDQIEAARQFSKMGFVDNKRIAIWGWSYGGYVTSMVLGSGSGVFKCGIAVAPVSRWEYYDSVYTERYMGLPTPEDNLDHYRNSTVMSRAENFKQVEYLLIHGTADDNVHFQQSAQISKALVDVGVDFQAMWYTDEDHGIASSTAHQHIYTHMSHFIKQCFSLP

Like-named read-outs stand apart in the source and are kept apart here. Square brackets hold non-standard residues; d marks the D form. Peptide text beside a SMILES is read from it. * marks the point of attachment. X5 = O=C(O)CN1CCN(CC(=O)O)CCN([C@H](CCC(=O)*)C(=O)O)CCN(CC(=O)O)CC1; DOTA = O=C(O)CN1CCN(CC(=O)O)CCN(CC(=O)*)CCN(CC(=O)O)CC1; Pyrrolidine(2S-CN,4,4-F2) = N#C[C@@H]1CC(F)(F)CN1*; boroPro = OB(O)[C@@H]1CCCN1*

Chain of recombinant human prolyl oligopeptidase (PREP) (P48147 whole entry): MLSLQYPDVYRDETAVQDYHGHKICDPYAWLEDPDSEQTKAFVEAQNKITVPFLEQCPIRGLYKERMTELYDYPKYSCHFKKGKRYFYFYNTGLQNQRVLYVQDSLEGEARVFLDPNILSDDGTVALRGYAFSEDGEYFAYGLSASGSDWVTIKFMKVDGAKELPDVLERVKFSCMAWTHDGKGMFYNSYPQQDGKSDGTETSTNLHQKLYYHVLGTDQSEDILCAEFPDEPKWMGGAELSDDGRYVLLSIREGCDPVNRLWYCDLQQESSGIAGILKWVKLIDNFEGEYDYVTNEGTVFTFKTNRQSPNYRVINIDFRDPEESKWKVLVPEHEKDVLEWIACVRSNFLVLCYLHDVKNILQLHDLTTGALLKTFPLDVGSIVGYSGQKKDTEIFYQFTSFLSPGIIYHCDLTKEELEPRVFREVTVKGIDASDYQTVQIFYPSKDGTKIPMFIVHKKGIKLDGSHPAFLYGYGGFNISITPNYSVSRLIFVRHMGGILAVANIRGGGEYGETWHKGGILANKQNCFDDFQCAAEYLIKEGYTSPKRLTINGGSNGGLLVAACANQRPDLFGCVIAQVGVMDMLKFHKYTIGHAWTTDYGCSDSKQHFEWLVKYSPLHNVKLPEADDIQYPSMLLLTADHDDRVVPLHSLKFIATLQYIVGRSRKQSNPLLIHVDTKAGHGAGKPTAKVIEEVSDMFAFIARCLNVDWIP
Chain of recombinant human fibroblast activation protein (FAP) (Q12884 whole entry): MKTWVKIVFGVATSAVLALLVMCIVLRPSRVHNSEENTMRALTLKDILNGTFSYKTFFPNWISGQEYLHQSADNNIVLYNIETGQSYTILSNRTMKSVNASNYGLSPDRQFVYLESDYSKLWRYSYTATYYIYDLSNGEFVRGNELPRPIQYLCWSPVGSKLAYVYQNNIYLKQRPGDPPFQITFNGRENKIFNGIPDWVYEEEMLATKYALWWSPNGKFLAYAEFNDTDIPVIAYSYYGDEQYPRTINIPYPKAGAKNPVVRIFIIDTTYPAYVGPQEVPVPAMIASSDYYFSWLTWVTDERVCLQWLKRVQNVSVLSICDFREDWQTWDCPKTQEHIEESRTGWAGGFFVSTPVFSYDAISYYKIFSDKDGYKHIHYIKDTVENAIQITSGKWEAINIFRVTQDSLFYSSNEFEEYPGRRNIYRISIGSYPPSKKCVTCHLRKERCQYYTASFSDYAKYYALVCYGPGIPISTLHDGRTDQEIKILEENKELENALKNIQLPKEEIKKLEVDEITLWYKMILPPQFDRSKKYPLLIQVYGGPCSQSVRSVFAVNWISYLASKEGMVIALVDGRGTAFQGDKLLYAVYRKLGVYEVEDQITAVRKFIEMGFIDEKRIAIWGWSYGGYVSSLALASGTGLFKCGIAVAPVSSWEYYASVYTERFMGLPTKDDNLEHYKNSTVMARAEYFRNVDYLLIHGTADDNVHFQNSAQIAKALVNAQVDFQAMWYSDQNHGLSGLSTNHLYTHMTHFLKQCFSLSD

`C[C@@H](NC(=O)c1ccc(NNC(=O)CCCNC(=O)CN2CCN3CCN4CCN(CC2)CC(=O)[O][Ga]([O]C(=O)C3)[O]C(=O)C4)nc1)C(=O)N1CCC[C@H]1B(O)O` [6489 GA]: the concentration for half-maximal inhibition (IC50) in assay [1] is 39 nM; in assay [2], 3.4 µM; in assay [3], above 100 µM.
For `C[C@@H](NC(=O)c1ccc(CNC(=O)CCCNC(=O)CN2CCN(CC(=O)O)CCN(CC(=O)O)CCN(CC(=O)O)CC2)cc1)C(=O)N1CCC[C@H]1B(O)O` [compound 6591], the IC50 was found to be 0.36 nM in assay [1] and 0.103 µM in assay [2].
Consider `CC(C)[C@H](NC(=O)CNC(=O)CC[C@H](C(=O)O)N1CCN(CC(=O)O)CCN(CC(=O)O)CCN(CC(=O)O)CC1)C(=O)N[C@H](C)C(=O)N1CCC[C@H]1B(O)O` [6795D], for which the IC50 in assay [1] (Z-Gly-Pro-AMC, 1.2 nM enzyme) was 17 nM; in assay [2] (Z-Gly-Pro-AMC, 0.6 nM enzyme), 7.45 µM; in assay [3] (Gly-Pro-AMC, 0.1 nM enzyme) it was above 100 µM.
As for `C[C@@H](NC(=O)c1ccc(CNC(=O)CN2CCN3CCN4CCN(CC2)CC(=O)[O][Ga]([O]C(=O)C3)[O]C(=O)C4)nc1)C(=O)N1CCC[C@H]1B(O)O` [6556GA], the IC50 came to 32 nM in assay [1] and 0.248 µM in assay [2].
For `CC(C)[C@H](NC(=O)CNC(=O)CNC(=O)CN1CCN(CC(=O)O)CCN(CC(=O)O)CCN(CC(=O)O)CC1)C(=O)N[C@H](C)C(=O)N1CC(F)(F)C[C@H]1C#N` [compound 6790] ({DOTA}-GGV[dA]-{Pyrrolidine(2S-CN,4,4-F2)}), the half-maximal inhibitory concentration (IC50) in assay [1] (Z-Gly-Pro-AMC, 1.2 nM enzyme) was determined as 107 nM; in assay [2] (Z-Gly-Pro-AMC, 0.6 nM enzyme), 157 µM.
As to `C[C@@H](NC(=O)c1ccc(NNC(=O)CCCCCNC(=O)CN2CCN3CCN4CCN(CC2)CC(=O)[O][Ga]([O]OC(=O)C3)[O]C(=O)C4)cc1)C(=O)N1CCC[C@H]1B(O)O` [6486 GA], the values for the IC50 in assay [1], in assay [2] and in assay [3] were 81 nM, 4.7 µM and above 100 µM, respectively.
Regarding `C[C@@H](NC(=O)c1ccc(CNC(=O)CN2CCN3CCN4CCN(CC2)CC(=O)[O][Lu]([O]C(=O)C3)[O]C(=O)C4)nc1)C(=O)N1CCC[C@H]1B(O)O` [6556LU], the figures for the IC50 in assay [1] and in assay [2] were 2.9 nM and 0.895 µM, respectively.
In the case of `C[C@@H](NC(=O)[C@H]1CC[C@H](CNC(=O)CN2CCN3CCN4CCN(CC2)CC(=O)[O][Ga]([O]C(=O)C3)[O]C(=O)C4)CC1)C(=O)N1CCC[C@H]1B(O)O` [6952 GA], the IC50 in assay [1] (Z-Gly-Pro-AMC, 1.2 nM enzyme) came out at 87 nM; in assay [2] (Z-Gly-Pro-AMC, 0.6 nM enzyme) it was 50 µM; in assay [3] (Gly-Pro-AMC, 0.1 nM enzyme) it was 80 µM.
Regarding `CC(C)[C@H](NC(=O)CNC(=O)CC[C@@H]1C(=O)[O][Lu]23[O]C(=O)CN4CCN(CCN1CCN(CC4)CC(=O)[O]2)CC(=O)[O]3)C(=O)N[C@H](C)C(=O)N1CCC[C@H]1B(O)O` [6795DLU], the IC50 in assay [1] (Z-Gly-Pro-AMC, 1.2 nM enzyme) is 60 nM; in assay [2] (Z-Gly-Pro-AMC, 0.6 nM enzyme), 10 µM; in assay [3] (Gly-Pro-AMC, 0.1 nM enzyme), above 100 µM.
Regarding `C[C@@H](NC(=O)c1ccc(NNC(=O)CCCCC[N+]2=C(/C=C/C3=C(Oc4ccc(S(=O)(=O)O)cc4)C(=C/C=C4/N(CCCCS(=O)(=O)O)c5ccc(S(=O)(=O)O)cc5C4(C)C)/CCC3)C(C)(C)c3cc(S(=O)(=O)O)ccc32)cc1)C(=O)N1CCC[C@H]1B(O)O` [4613 C], the IC50 in assay [1] came to 1.7 nM; in assay [2], 0.61 µM.
With `CC(C)[C@H](NC(=O)CNC(=O)CNC(=O)CNC(=O)CC[C@H](C(=O)O)N1CCN(CC(=O)O)CCN(CC(=O)O)CCN(CC(=O)O)CC1)C(=O)N[C@H](C)C(=O)N1CCC[C@H]1B(O)O` [6808D] (X5-GGGV[dA]-boroPro), the IC50 in assay [1] (Z-Gly-Pro-AMC, 1.2 nM enzyme) was determined as 11.5 nM; in assay [2] (Z-Gly-Pro-AMC, 0.6 nM enzyme) it was 11 µM.
As to `C[C@@H](NC(=O)c1ccc(NC(=O)CCCCNC(=O)CN2CCN(CC(=O)O)CCN(CC(=O)O)CCN(CC(=O)O)CC2)cc1)C(=O)N1CCC[C@H]1B(O)O` [compound 6590], the IC50 in assay [1] is 1.6 nM; in assay [2], 0.129 µM.
As for `C[C@@H](NC(=O)CN1CCN2CC(=O)O[C]3(CN4CCN5CC(=O)O[C](C1)(C5)[Gd]3[O]C(=O)C4)C2)C(=O)N1CCC[C@H]1B(O)O` (stereo partly drawn) [4535GD], the IC50 in assay [1] (Z-Gly-Pro-AMC, 1.2 nM enzyme) is 760 nM; in assay [2] (Z-Gly-Pro-AMC, 0.6 nM enzyme), above 10 µM.
Regarding `C[C@@H](NC(=O)c1ccc(NNC(=O)CN2CCN3CCN(CC(=O)O)CCN(CC2)CC(=O)[O][Cu][O]C(=O)C3)cc1)C(=O)N1CCC[C@H]1B(O)O` [5183BU], the IC50 in assay [1] came out at 10.3 nM.
For the compound `CC(C)[C@H](NC(=O)CCCCCCCNC(=O)CN1CCN2CCN3CCN(CC1)CC(=O)[O][Ga]([O]C(=O)C2)[O]C(=O)C3)C(=O)N[C@H](C)C(=O)N1CCC[C@H]1B(O)O` [6947GA, DOTA(Ga)-OCT-Val-Dala-boroPro], in assay [1] (Z-Gly-Pro-AMC, 1.2 nM enzyme), the IC50 was found to be 219 nM.

A word on the IC50: it is the point on the concentration scale where inhibition reaches its midpoint.

Source of the values: US20240207292A1, “BORONIC ACID COMPOUNDS, COMPOSITIONS AND METHODS” (Trustees of Tufts College, priority 2021, published 2024).
